One assay has as its system BT-474. The assay can be described thus: Proliferation inhibition assay in vitro, BT-474 (CellTiter-Glo). It counts as cell-based. Particulars: Homo sapiens, 72 hours, read-out: IC50(nM) cell BT-474. The essentials: (§1)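 Cells were seeded at 8.8×10^4 cells/mL for BT-474 or 6.6×10^4 cells/mL for N87 and grown overnight. Compound was added at 9 concentrations in duplicate for 72 h at 37 °C, 5% CO2. Viability was measured by CellTiter-Glo.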

A further assay deals with EGFR kinase (Homo sapiens, UniProt P00533). The assay can be described thus: Enzymatic experiment on EGFR (HTRF kinEASE-TK). It counts as biochemical. Particulars: ATP 1.65 μM; read-out: Kinase IC50 (nM) in vitro EGFR. The essentials:
(§2)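 HTRF kinEASE-TK with biotinylated TK substrate in HEPES pH 7.0 buffer containing MnCl2, MgCl2 and DTT; ErbB2 at 0.06 ng/μl with 4 μM ATP, EGFR at 0.06 units/μl with 1.65 μM ATP, 30 min at room temperature after 5 min enzyme/substrate–compound preincubation. Ten-point 3-fold dilutions; Eu antibody/SA-XL665 detection, 665/620 ratio.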

Another assay deals with N87. As to the kind of experiment: Proliferation inhibition assay in vitro, N87 (CellTiter-Glo). The format is cell-based. Particulars: Homo sapiens; 72 hours; read-out: IC50(nM) cell N87. The essentials: as §1
The target of the next assay is ErbB2 kinase (Homo sapiens, UniProt P04626). The assay can be described thus: Enzymatic experiment on ErbB2 (HTRF kinEASE-TK). The format is biochemical. The following applies: ATP 4 μM; read-out: Kinase IC50 (nM) in vitro ErbB2. The essentials:
as §2

Sequence of EGFR kinase (P00533 25-1210): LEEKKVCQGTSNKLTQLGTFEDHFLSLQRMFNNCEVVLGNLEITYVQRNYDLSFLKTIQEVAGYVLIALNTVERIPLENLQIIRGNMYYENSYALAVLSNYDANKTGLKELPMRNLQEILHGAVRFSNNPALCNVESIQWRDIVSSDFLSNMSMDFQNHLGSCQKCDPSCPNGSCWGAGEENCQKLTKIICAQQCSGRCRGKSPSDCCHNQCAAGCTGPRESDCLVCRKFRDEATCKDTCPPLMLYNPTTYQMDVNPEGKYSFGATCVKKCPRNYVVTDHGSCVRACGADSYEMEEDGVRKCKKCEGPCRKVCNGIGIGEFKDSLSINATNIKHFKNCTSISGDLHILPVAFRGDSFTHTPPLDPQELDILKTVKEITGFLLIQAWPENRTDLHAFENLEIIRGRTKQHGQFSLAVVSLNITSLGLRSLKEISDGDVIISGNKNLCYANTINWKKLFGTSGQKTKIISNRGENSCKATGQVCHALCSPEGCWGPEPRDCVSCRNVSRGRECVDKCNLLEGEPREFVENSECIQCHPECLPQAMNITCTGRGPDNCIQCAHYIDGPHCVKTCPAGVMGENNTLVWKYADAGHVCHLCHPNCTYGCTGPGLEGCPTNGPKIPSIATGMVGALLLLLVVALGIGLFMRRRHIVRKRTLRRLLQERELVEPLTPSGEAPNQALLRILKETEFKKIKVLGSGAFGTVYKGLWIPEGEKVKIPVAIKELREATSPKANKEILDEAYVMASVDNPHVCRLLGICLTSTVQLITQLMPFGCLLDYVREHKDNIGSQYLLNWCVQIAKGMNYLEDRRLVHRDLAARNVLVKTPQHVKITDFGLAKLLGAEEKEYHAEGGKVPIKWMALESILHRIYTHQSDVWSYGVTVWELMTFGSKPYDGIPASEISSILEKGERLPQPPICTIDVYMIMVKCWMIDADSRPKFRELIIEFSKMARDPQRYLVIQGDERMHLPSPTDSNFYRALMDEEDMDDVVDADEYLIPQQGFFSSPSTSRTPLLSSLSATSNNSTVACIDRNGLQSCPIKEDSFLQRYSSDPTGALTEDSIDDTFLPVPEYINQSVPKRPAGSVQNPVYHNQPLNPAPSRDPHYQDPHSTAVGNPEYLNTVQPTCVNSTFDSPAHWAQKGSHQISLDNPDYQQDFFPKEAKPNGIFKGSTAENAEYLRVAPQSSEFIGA
Sequence of ErbB2 kinase (P04626 23-1255): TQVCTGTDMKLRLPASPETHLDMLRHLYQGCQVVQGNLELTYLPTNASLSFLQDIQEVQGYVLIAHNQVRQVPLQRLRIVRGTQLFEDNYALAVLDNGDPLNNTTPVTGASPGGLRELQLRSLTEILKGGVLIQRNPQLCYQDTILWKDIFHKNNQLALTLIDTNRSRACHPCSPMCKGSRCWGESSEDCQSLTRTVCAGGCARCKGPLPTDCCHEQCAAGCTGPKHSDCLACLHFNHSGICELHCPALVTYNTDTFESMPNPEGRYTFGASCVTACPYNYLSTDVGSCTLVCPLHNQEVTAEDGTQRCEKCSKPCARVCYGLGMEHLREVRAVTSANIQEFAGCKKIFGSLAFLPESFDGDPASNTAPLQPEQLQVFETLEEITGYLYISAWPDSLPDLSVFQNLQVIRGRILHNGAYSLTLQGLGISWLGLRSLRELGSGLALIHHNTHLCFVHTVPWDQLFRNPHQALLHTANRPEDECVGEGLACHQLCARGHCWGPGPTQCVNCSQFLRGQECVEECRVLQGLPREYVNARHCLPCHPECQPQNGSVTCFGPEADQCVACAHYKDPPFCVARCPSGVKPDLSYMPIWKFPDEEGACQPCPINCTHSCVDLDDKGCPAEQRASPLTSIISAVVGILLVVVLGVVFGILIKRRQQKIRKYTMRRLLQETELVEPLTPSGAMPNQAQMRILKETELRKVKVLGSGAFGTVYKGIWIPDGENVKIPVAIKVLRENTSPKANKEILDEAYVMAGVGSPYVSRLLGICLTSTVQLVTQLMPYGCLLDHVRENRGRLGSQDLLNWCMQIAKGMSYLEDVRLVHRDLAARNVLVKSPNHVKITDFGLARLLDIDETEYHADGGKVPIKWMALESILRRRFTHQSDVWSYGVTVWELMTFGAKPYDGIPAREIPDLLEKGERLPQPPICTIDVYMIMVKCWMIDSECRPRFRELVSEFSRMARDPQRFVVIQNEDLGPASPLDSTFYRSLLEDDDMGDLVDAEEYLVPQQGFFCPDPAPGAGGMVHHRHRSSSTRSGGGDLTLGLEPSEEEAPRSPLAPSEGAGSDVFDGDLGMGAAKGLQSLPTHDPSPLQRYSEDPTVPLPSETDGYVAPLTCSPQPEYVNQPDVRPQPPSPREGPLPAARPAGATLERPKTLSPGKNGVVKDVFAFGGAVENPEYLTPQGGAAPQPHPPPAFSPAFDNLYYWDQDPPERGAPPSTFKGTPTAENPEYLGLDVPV

Turning to `Cc1cc(Nc2ncnc3ccc(NC4=NCC5(CCOCC5)O4)cc23)ccc1Oc1cc2nncn2cn1` [Embodiment 46, N^4-(4-([1,2,4]triazolo[4,3-c]pyrimidin-7-yloxy)-3-methylphenyl)-N^6-(1,8-dioxa-3-azaspiro[4.5]dec-2-en-2-yl)quinazoline-4,6-diamine], the IC50 is 172 nM with BT-474, 51.6 nM at EGFR kinase, 316 nM in the assay with N87 and 12 nM on ErbB2 kinase.
Regarding `C=CC(=O)N1CC=C(c2ccc3ncnc(Nc4ccc(Oc5cc6nncn6cn5)c(C)c4)c3c2)CC1` [Embodiment 117, 1-(4-(4-((4-([1,2,4]triazolo[4,3-c]pyrimidin-7-yloxy)-3-methylphenyl)amino)quinazolin-6-yl)-5,6-dihydropyridin-1(2H)-yl)prop-2-en-1-one], the IC50 in the assay with BT-474 was found to be 3.1 nM; at EGFR kinase, 100 nM; in the assay with N87 it was 2.1 nM; on ErbB2 kinase, 3.6 nM.
Turning to `Cc1cc(Nc2ncnc3ccc(NC4=NC5(CCOCC5)CO4)cc23)ccc1Oc1cc2nncn2cn1` [Embodiment 47, N^4-(4-([1,2,4]triazolo[4,3-c]pyrimidin-7-yloxy)-3-methylphenyl)-N^6-(3,8-dioxa-1-azaspiro[4.5]dec-1-en-2-yl)quinazoline-4,6-diamine], the IC50 with BT-474 was found to be 35 nM; at EGFR kinase, 31.4 nM; in the assay on N87, 68.4 nM; on ErbB2 kinase, 2.6 nM.
Regarding `Cc1cc(Nc2ncnc3ccc(NC4=NC(C)(C)CO4)cc23)ccc1Oc1cc2nccn2cn1` [Embodiment 3, N^6-(4,4-dimethyl-4,5-dihydrooxazol-2-yl)-N^4-(4-(imidazo[1,2-c]pyrimidin-7-yloxy)-3-methylphenyl)quinazoline-4,6-diamine], the IC50 with BT-474 was found to be 38.5 nM; on EGFR kinase it was 18.7 nM; in the assay with N87, 48.7 nM; at ErbB2 kinase, 1.1 nM.
On to `C=C(F)C(=O)Nc1ccc2ncnc(Nc3ccc(Oc4cc5nncn5cn4)c(C)c3)c2c1` [Embodiment 16, N-(4-((4-([1,2,4]triazolo[4,3-c]pyrimidin-7-yloxy)-3-methylphenyl)amino)quinazolin-6-yl)-2-fluoroacrylamide], for which the IC50 in the assay on BT-474 was 7.7 nM; on EGFR kinase, 32.3 nM; in the assay with N87 it was 5.6 nM; at ErbB2 kinase, 3.4 nM.
Regarding `CC1(C)COC(Nc2ccc3ncnc(Nc4ccc(Oc5cc6nncn6cn5)c(F)c4)c3c2)=N1` [Embodiment 19, N^4-(4-([1,2,4]triazolo[4,3-c]pyrimidin-7-yloxy)-3-fluorophenyl)-N^6-(4,4-dimethyl-4,5-dihydrooxazol-2-yl)-quinazoline-4,6-diamine], the IC50 in the assay with BT-474 was determined as 98.2 nM; on EGFR kinase it was 22.1 nM; with N87, 125 nM; at ErbB2 kinase it was 3.3 nM.
For `Cc1cc(Nc2ncnc3ccc(NC(=S)NC(C)(CO)CO)cc23)ccc1Oc1cc2nncn2cn1` [Embodiment 12, 1-(4-((4-([1,2,4]triazolo[4,3-c]pyrimidin-7-yloxy)-3-methylphenyl)amino)quinazoline-6-yl)-3-(1,3-dihydroxy-2-methylpropan-2-yl)thiourea], the 50% inhibitory concentration (IC50) in the assay on BT-474 was 136 nM; at EGFR kinase, 231 nM; in the assay with N87 it was 482 nM; on ErbB2 kinase, 4.3 nM.
On the same counts, the results for `Cc1cc(Nc2ncnc3ccc(-c4ccc(CNCCS(C)(=O)=O)n4C)cc23)ccc1Oc1cc2nncn2cn1` [Embodiment 123, N-(4-([1,2,4]triazolo[4,3-c]pyrimidin-7-yloxy)-3-methylphenyl)-6-(1-methyl-5-(((2-(methylsulfonyl)ethyl)amino)methyl)-1H-pyrrol-2-yl)quinazolin-4-amine] are 219 nM, 32.8 nM, 429 nM and 4.4 nM.
As to `C=CC(=O)Nc1cccc(-c2ccc3ncnc(Nc4ccc(Oc5cc6nncn6cn5)c(C)c4)c3c2)c1` [Embodiment 75, N-(3-(4-((4-([1,2,4]triazolo[4,3-c]pyrimidin-7-yloxy)-3-methylphenyl)amino)quinazolin-6-yl)phenyl)acrylamide], the IC50 came out at 9 nM in the assay on BT-474, 19.2 nM at EGFR kinase, 15 nM in the assay on N87 and 1.34 nM on ErbB2 kinase.
Consider `Cc1cc(Nc2ncnc3ccc(NC(=S)NC(C)(C)CO)cc23)ccc1Oc1cc2nncn2cn1` [Embodiment 106, 1-(4-((4-([1,2,4]triazolo[4,3-c]pyrimidin-7-yloxy)-3-methylphenyl)amino)quinazolin-6-yl)-3-(1-hydroxy-2-methylpropan-2-yl)thiourea], for which the IC50 with BT-474 was 264 nM; on EGFR kinase, 445 nM; in the assay on N87 it was 933 nM; on ErbB2 kinase, 21.5 nM.
On to `Cc1cc(Nc2ncnc3ccc(-c4ccc(CNCCS(C)(=O)=O)s4)cc23)ccc1Oc1cc2nncn2cn1` [Embodiment 79], for which the IC50 amounted to 24.7 nM with BT-474, 7.7 nM on EGFR kinase, 37.2 nM in the assay with N87 and 1.7 nM at ErbB2 kinase.
On to `Cc1cc(Nc2ncnc3ccc(/C=C/CNC(=O)C4CC4)cc23)ccc1Oc1cc2nncn2cn1` [Embodiment 122, (E)-N-(3-(4-((4-([1,2,4]triazolo[4,3-c]pyrimidin-7-yloxy)-3-methylphenyl)amino)quinazolin-6-yl)allyl)cyclopropylcarboxamide], for which the IC50 was 37 nM in the assay on BT-474, 87.2 nM on EGFR kinase, 92 nM in the assay with N87 and 2.7 nM at ErbB2 kinase.
As for `Cc1cc(Nc2ncnc3ccc(-c4cc(CNCCS(C)(=O)=O)co4)cc23)ccc1Oc1cc2nncn2cn1` [Embodiment 62], the IC50 in the assay with BT-474 stood at 30 nM; at EGFR kinase, 14.2 nM; in the assay with N87, 72.4 nM; at ErbB2 kinase, 1.5 nM.
As to `Cc1cc(Nc2ncnc3ccc(-c4cccc(N)c4)cc23)ccc1Oc1cc2nncn2cn1` [Embodiment 35], the IC50 with BT-474 is 49.6 nM; at EGFR kinase it was 10.9 nM; in the assay on N87, 52.9 nM; on ErbB2 kinase, 1.1 nM.
As for `C=C(F)C(=O)Nc1cc2c(Nc3ccc(Oc4cc5nncn5cn4)c(C)c3)ncnc2cc1F` [Embodiment 125, N-(4-((4-([1,2,4]triazolo[4,3-c]pyrimidin-7-yloxy)-3-methylphenyl)amino)-7-fluoroquinolin-6-yl)-2-fluoroacryamide], the IC50 with BT-474 turned out to be 13.6 nM; at EGFR kinase it was 14.7 nM; in the assay on N87, 6.8 nM; on ErbB2 kinase, 3.4 nM.
On the same counts, the results for `Cc1cc(Nc2ncnc3ccc(-c4cccc(CNCCS(C)(=O)=O)c4)cc23)ccc1Oc1cc2nncn2cn1` [Embodiment 68] are 38.7 nM, 5.4 nM, 52 nM and 2.2 nM.
On to `Cc1cc(Nc2ncnc3ccc(NC4=N[C@@H](C(C)C)CO4)cc23)ccc1Oc1cc2nncn2cn1` [Embodiment 91, (S)—N^4-(4-([1,2,4]triazolo[4,3-c]pyrimidin-7-yloxy)-3-methylphenyl)-N^6-(4-isopropyl-4,5-dihydrooxazol-2-yl)quinazolin-4,6-diamine], for which the IC50 in the assay with BT-474 worked out at 38.8 nM; on EGFR kinase, 26.9 nM; in the assay on N87, 76.8 nM; at ErbB2 kinase, 2.76 nM.
Turning to `Cc1cc(Nc2ncnc3ccc(NC(=O)N4CCN(C)CC4)cc23)ccc1Oc1cc2nncn2cn1` [Embodiment 10, N-(4-((4-([1,2,4]triazolo[4,3-c]pyrimidin-7-yloxy)-3-methylphenyl)amino)quinazolin-6-yl)-4-methylpiperazine-1-carboxamide], the IC50 was found to be 92.3 nM in the assay with BT-474, 143 nM at EGFR kinase, 200 nM in the assay with N87 and 12.6 nM at ErbB2 kinase.
On to `C=CC(=O)N1CCC(Oc2cc3c(Nc4ccc(Oc5cc6nncn6cn5)c(Cl)c4)ncnc3cc2OC)CC1` [Embodiment 92, 1-(4-((4-((4-([1,2,4]triazolo[4,3-c]pyrimidin-7-yloxy)-3-chlorophenyl)amino)-7-methoxyquinazolin-6-yl)oxy)piperidin-1-yl)prop-2-en-1-one], for which the IC50 in the assay on BT-474 worked out at 2.2 nM; on EGFR kinase, 0.7 nM; in the assay on N87, 3.4 nM; on ErbB2 kinase it was 0.44 nM.
For the molecule `COc1cc2ncnc(Nc3ccc(Oc4cc5nncn5cn4)c(C)c3)c2cc1OC1CCN(C(=O)/C=C/CN(C)C)CC1` [Embodiment 23], the half-inhibitory concentration (IC50) in the assay with BT-474 was found to be 79.5 nM; at EGFR kinase it was 0.7 nM; with N87, 55.7 nM; on ErbB2 kinase, 5.2 nM.
On the same counts, the results for `Cc1cc(Nc2ncnc3ccc(NC4=NCC5(CCN(C)CC5)O4)cc23)ccc1Oc1cc2nncn2cn1` [Embodiment 31, N^4-(4-([1,2,4]triazolo[4,3-c]pyrimidin-7-yloxy)-3-methylphenyl)-N^6-(8-methyl-1-oxa-3,8-diazaspiro[4.5]dec-2-en-2-yl)quinazoline-4,6-diamine] are 187 nM, 57.4 nM, 433 nM and 10.1 nM.
In the case of `COCC(=O)Nc1cccc(-c2ccc3ncnc(Nc4ccc(Oc5cc6nncn6cn5)c(C)c4)c3c2)c1` [Embodiment 34, N-(3-(4-((4-([1,2,4]triazolo[4,3-c]pyrimidin-7-yloxy)-3-methylphenyl)amino)quinazoline-6-yl)phenyl)-2-methoxyacetamide], the half-inhibitory concentration (IC50) in the assay on BT-474 was determined as 55.6 nM; at EGFR kinase, 8.2 nM; in the assay with N87, 46.3 nM; at ErbB2 kinase, 2.1 nM.

For the origin of these results see patent US10828305B2 (SHANGHAI PHARMACEUTICALS HOLDING CO., LTD., priority 2016, dated 2020).
